Measured values from patent publication US12539292B2, “BRM targeting compounds and associated methods of use” (Arvinas Operations, Inc., priority 2018, dated 2026).
Like-named read-outs stand apart in the source and are kept apart here.

Target: T1, BRM (Homo sapiens, UniProt P51531)
T1 construct: In-Cell Western Screen of BRM Degradation in SW1573 Cells; endogenous in cells; host or cells: SW1573
Experiment: In-cell Western screen of BRM degradation in SW1573 cells (Dmax and DC50)
Type: cell-based
How it was run: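 SW1573 cells were treated with compound overnight (18-20 h; final DMSO 0.1%), then fixed in 4% PFA, permeabilized with Triton X-100 and blocked. BRM was detected by in-cell Western using 800 nm anti-rabbit and 680 nm anti-mouse secondaries, and Dmax and DC50 were derived from the LI-COR Odyssey signal.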

[1] = BRM degradation, SW1573 cells, read-out: DC50
[2] = BRM degradation, SW1573 cells, tested at the top concentration of between 0.3 and 10 μM, read-out: Dmax (%) (% degraded)
[3] = BRM degradation, SW1573 cells, when tested at the top concentration of between 0.3 and 10 μM, read-out: Dmax (%) (% degraded)
[4] = SW1573, % degraded, when tested at the top concentration of between 0.3 and 10 μM, read-out: BRM Dmax (%)

T1 sequence (P51531 whole entry): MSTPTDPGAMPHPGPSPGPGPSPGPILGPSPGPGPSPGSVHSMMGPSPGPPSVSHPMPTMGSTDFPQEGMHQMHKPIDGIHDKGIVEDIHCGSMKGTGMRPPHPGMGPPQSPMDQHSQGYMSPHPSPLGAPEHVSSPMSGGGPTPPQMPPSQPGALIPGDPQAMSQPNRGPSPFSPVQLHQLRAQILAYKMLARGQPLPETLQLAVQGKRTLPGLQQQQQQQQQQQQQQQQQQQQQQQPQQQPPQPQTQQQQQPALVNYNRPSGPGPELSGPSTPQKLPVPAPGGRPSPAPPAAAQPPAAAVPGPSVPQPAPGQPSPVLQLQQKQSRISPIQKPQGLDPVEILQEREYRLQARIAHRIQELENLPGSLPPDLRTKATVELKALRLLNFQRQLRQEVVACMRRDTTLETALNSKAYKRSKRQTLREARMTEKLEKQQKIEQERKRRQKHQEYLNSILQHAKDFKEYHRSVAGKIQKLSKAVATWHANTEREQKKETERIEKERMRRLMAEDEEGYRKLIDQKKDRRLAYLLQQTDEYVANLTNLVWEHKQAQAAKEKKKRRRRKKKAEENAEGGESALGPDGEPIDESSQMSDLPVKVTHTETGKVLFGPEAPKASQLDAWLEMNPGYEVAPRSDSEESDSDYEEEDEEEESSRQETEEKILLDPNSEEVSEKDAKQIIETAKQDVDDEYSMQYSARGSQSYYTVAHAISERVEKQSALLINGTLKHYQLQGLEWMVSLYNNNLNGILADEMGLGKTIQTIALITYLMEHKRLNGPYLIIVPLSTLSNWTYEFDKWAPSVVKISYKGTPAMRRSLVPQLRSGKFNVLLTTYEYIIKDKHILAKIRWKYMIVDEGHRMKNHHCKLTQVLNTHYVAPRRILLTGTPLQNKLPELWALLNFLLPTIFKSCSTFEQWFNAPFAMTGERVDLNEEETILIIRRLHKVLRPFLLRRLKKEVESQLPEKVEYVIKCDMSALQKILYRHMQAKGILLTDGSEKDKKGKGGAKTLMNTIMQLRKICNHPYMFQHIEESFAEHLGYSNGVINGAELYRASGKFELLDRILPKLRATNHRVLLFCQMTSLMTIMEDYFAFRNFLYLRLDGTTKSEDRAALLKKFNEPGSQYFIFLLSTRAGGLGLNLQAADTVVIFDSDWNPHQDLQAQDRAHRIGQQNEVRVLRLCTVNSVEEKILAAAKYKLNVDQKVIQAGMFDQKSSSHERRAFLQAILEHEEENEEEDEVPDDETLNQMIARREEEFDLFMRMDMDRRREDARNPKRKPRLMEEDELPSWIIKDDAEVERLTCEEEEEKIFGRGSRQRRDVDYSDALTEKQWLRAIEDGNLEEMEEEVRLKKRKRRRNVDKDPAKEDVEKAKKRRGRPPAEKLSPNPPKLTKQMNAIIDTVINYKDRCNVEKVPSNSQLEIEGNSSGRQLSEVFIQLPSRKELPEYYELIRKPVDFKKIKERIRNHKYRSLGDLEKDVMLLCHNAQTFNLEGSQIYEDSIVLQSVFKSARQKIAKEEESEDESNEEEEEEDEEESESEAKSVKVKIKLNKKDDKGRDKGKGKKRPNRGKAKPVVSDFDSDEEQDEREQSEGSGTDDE

Row | SMILES | DC50 [1] [nM] | Dmax [2] [%] | Dmax [3] [%] | further results
1 | Cc1ncsc1-c1ccc([C@H](C)NC(=O)[C@@H]2C[C@@H](O)CN2C(=O)[C@H](c2cc(OCCN3CCC(O[C@H]4C[C@H](Oc5cc(N6C7CCC6CN(c6cc(-c8ccccc8O)nnc6N)C7)ccn5)C4)CC3)no2)C(C)C)cc1F [compound 252, (2S,4R)-1-((2S)-2-(3-(2-(4-((1r,3S)-3-((4-(3-(3-amino-6-(2-hydroxyphenyl)pyridazin-4-yl)-3,8-diazabicyclo[3.2.1]octan-8-yl)pyridin-2-yl)oxy)cyclobutoxy)piperidin-1-yl)ethoxy)isoxazol-5-yl)-3-methylbutanoyl)-N-((S)-1-(3-fluoro-4-(4-methylthiazol-5-yl)phenyl)ethyl)-4-hydroxypyrrolidine-2-carboxamide] | > 30 | > 75 |  | 
2 | Cc1ncsc1-c1ccc([C@H](C)NC(=O)[C@@H]2C[C@@H](O)CN2C(=O)[C@@H](NC(=O)Cc2ccc(N3CCN(CCO[C@H]4C[C@H](Oc5cc(N6C7CCC6CN(c6cc(-c8ccccc8O)nnc6N)C7)ccn5)C4)CC3)nc2)C(C)(C)C)cc1 [compound 58, (2S,4R)-1-((2S)-2-(2-(6-(4-(2-((1r,3r)-3-((4-(3-(3-amino-6-(2-hydroxyphenyl)pyridazin-4-yl)-3,8-diazabicyclo[3.2.1]octan-8-yl)pyridin-2-yl)oxy)cyclobutoxy)ethyl)piperazin-1-yl)pyridin-3-yl)acetamido)-3,3-dimethylbutanoyl)-4-hydroxy-N-((S)-1-(4-(4-methylthiazol-5-yl)phenyl)ethyl)pyrrolidine-2-carboxamide] | > 30 |  | 50 to 75 | 
3 | Cc1ncsc1-c1ccc([C@H](C)NC(=O)[C@@H]2C[C@@H](O)CN2C(=O)[C@H](c2cc(OC3CN(CCN4CCC(O[C@H]5C[C@H](Oc6cc(N7C8CCC7CN(c7cc(-c9ccccc9O)nnc7N)C8)ccn6)C5)CC4)C3)no2)C(C)C)cc1 [compound 370, (2S,4R)-1-((2S)-2-(3-((1-(2-(4-((1r,3r)-3-((4-(3-(3-amino-6-(2-hydroxyphenyl)pyridazin-4-yl)-3,8-diazabicyclo[3.2.1]octan-8-yl)pyridin-2-yl)oxy)cyclobutoxy)piperidin-1-yl)ethyl)azetidin-3-yl)oxy)isoxazol-5-yl)-3-methylbutanoyl)-4-hydroxy-N-((S)-1-(4-(4-methylthiazol-5-yl)phenyl)ethyl)pyrrolidine-2-carboxamide] |  |  |  | Dmax [4]: > 75%; DC50 (target protein degradation, read-out: BRM DC50): 10 to 30 nM
4 | Cc1ncsc1-c1ccc([C@H](C)NC(=O)[C@@H]2C[C@@H](O)CN2C(=O)[C@@H](c2cc(CCCOCCOCCOCCn3cc(-c4cc(-c5ccccc5O)nnc4N)cn3)no2)C(C)C)cc1 [compound 110, (2S,4R)-1-((R)-2-(3-(3-(2-(2-(2-(4-(3-amino-6-(2-hydroxyphenyl)pyridazin-4-yl)-1H-pyrazol-1-yl)ethoxy)ethoxy)ethoxy)propyl)isoxazol-5-yl)-3-methylbutanoyl)-4-hydroxy-N-((S)-1-(4-(4-methylthiazol-5-yl)phenyl)ethyl)pyrrolidine-2-carboxamide] | < 2.5 |  | > 75 | 
5 | Cc1ncsc1-c1ccc(CNC(=O)[C@@H]2C[C@@H](O)CN2C(=O)[C@@H](NC(=O)COCCOCCOCCOC/C=C/c2cc(N3C4CCC3CN(c3cc(-c5ccccc5O)nnc3N)C4)ccn2)C(C)(C)C)cc1 [compound 52, (2S,4R)-1-((S,E)-18-(4-(3-(3-amino-6-(2-hydroxyphenyl)pyridazin-4-yl)-3,8-diaza-bicyclo[3.2.1]octan-8-yl)pyridin-2-yl)-2-tert-butyl-4-oxo-6,9,12,15-tetraoxa-3-azaoctadec-17-en-1-oyl)-4-hydroxy-N-(4-(4-methylthiazol-5-yl)benzyl)pyrrolidine-2-carboxamide] | 10 to 30 |  | > 75 | 
6 | Cc1ncsc1-c1ccc([C@@H](NC(=O)[C@@H]2C[C@@H](O)CN2C(=O)[C@H](c2cc(OCCN3CCN(CCOc4cc(N5C6CCC5CN(c5cc(-c7ccccc7O)nnc5N)C6)ccn4)CC3)no2)C(C)C)C(=O)N(C)C)cc1 [compound 171, (2S,4R)-1-((2S)-2-(3-(2-(4-(2-((4-(3-(3-amino-6-(2-hydroxyphenyl)pyridazin-4-yl)-3,8-diazabicyclo[3.2.1]octan-8-yl)pyridin-2-yl)oxy)ethyl)piperazin-1-yl)ethoxy)isoxazol-5-yl)-3-methylbutanoyl)-N-((R)-2-(dimethylamino)-1-(4-(4-methylthiazol-5-yl)phenyl)-2-oxoethyl)-4-hydroxypyrrolidine-2-carboxamide] | > 30 | 50 to 75 |  | 
7 | Cc1ncsc1-c1ccc([C@H](C)NC(=O)[C@@H]2C[C@@H](O)CN2C(=O)[C@@H](c2cc(OCCC#Cc3ccc(OC4CC(Oc5cc(N6C7CC[C@@H]6CN(c6cc(-c8ccccc8O)nnc6N)C7)ccn5)C4)cn3)no2)C(C)C)cc1 (stereo partly drawn) [compound 227, (2S,4R)-1-((2R)-2-(3-((4-(5-((1r,3r)-3-((4-(3-(3-amino-6-(2-hydroxyphenyl)pyridazin-4-yl)-3,8-diazabicyclo[3.2.1]octan-8-yl)pyridin-2-yl)oxy)cyclobutoxy)pyridin-2-yl)but-3-yn-1-yl)oxy)isoxazol-5-yl)-3-methylbutanoyl)-4-hydroxy-N-((S)-1-(4-(4-methylthiazol-5-yl)phenyl)ethyl)pyrrolidine-2-carboxamide] | < 2.5 |  |  | Dmax (%) (% degraded) (BRM degradation, SW1573 cells, tested at the top concentration of between 0.3 and 10 μM): A (A > 75)
8 | Cc1ncsc1-c1ccc(CNC(=O)[C@@H]2C[C@@H](O)CN2C(=O)[C@H](C(C)C)N2Cc3ccccc3C2=O)c(OCCOCCOCCOCCOCCn2cc(-c3cc(-c4ccccc4O)nnc3N)cn2)c1 [compound 13, (2S,4R)-N-(2-((14-(4-(3-amino-6-(2-hydroxyphenyl)pyridazin-4-yl)-1H-pyrazol-1-yl)-3,6,9,12-tetraoxatetradecyl)oxy)-4-(4-methylthiazol-5-yl)benzyl)-4-hydroxy-1-((S)-3-methyl-2-(1-oxoisoindolin-2-yl)butanoyl)pyrrolidine-2-carboxamide] | > 30 |  | > 75 | 
9 | Cc1ncsc1-c1ccc([C@H](C)NC(=O)[C@@H]2C[C@@H](O)CN2C(=O)[C@H](c2cc(OCCN3CCN(Cc4ccc(C(C)n5cc(-c6cc(-c7ccccc7O)nnc6N)cn5)cc4)CC3)no2)C(C)C)cc1 (stereo partly drawn) [compound 166, (2S,4R)-1-((2S)-2-(3-(2-(4-(4-(1-(4-(3-amino-6-(2-hydroxyphenyl)pyridazin-4-yl)-1H-pyrazol-1-yl)ethyl)benzyl)piperazin-1-yl)ethoxy)isoxazol-5-yl)-3-methylbutanoyl)-4-hydroxy-N-((S)-1-(4-(4-methylthiazol-5-yl)phenyl)ethyl)pyrrolidine-2-carboxamide] | 2.5 to 10 | > 75 |  | 
10 | Cc1ncsc1-c1ccc([C@H](C)NC(=O)[C@@H]2C[C@@H](O)CN2C(=O)[C@@H](c2cc(OCC(F)(F)CN3CCC(O[C@H]4C[C@H](Oc5cc(N6C7CCC6CN(c6cc(-c8ccccc8O)nnc6N)C7)ccn5)C4)CC3)no2)C(C)C)cn1 [compound 422, (2S,4R)-1-((2R)-2-(3-(3-(4-((1r,3R)-3-((4-(3-(3-amino-6-(2-hydroxyphenyl)pyridazin-4-yl)-3,8-diazabicyclo[3.2.1]octan-8-yl)pyridin-2-yl)oxy)cyclobutoxy)piperidin-1-yl)-2,2-difluoropropoxy)isoxazol-5-yl)-3-methylbutanoyl)-4-hydroxy-N-((S)-1-(6-(4-methylthiazol-5-yl)pyridin-3-yl)ethyl)pyrrolidine-2-carboxamide] |  |  |  | Dmax [4]: > 75%; DC50 (degradation of BRM, read-out: BRM DC50): < 2.5 nM
